Values joined by “and” are separate entries in the source; they are usually repeats but may differ in a detail not shown here. Identical values can stand only once. Bridge positions count the residues as written; N and C are the ends. Ends that are not written are not given here. Peptide text beside a SMILES is read from it.
Experiments:
kOR [1] = biological target: T1, kOR (Mus musculus, UniProt P33534); assay: biochemical; type: binding
kOR [2] = biological target: T1, kOR; assay: cell-based
T-cell proliferation = conditions: in vitro; IL-2-dependent mechanism; cited from earlier work
[3] = mouse, in vivo, ip
EAE mouse model = conditions: mice; oral administration; cited from earlier work
kOR [4] = biological target: T1, kOR; type: cell-based
hKOR = hKOR (Homo sapiens, UniProt P41145); conditions: cited from earlier work
Chain of hKOR (P41145 whole entry): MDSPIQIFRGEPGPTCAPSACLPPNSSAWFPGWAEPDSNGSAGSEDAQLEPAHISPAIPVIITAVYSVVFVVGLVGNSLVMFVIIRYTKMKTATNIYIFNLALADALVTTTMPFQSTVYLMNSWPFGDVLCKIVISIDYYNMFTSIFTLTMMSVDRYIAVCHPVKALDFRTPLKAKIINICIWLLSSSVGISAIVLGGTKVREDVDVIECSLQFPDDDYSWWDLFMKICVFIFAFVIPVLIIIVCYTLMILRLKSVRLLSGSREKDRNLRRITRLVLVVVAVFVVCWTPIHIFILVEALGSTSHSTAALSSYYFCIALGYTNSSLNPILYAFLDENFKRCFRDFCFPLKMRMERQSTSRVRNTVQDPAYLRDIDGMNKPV

T1 sequence (P33534 whole entry): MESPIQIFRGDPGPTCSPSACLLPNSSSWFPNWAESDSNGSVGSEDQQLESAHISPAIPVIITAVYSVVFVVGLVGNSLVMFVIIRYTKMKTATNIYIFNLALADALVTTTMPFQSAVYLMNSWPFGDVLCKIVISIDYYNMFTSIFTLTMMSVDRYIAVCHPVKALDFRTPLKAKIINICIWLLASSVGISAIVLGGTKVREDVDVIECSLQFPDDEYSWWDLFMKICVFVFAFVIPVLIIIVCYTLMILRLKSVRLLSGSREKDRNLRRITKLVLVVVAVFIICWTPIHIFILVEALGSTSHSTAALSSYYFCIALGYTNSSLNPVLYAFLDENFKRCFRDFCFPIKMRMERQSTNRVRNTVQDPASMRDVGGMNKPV

Molecule: CC[C@H](C)[C@@H]1NC(=O)[C@H](C(C)C)NC(=O)[C@H]([C@@H](C)O)NC(=O)[C@H](CO)NC(=O)[C@H](Cc2ccccc2)NC(=O)[C@@H]2CSSC[C@@H]3NC(=O)[C@H](C(C)C)NC(=O)[C@H](CCCCN)NC(=O)[C@H](CC(N)=O)NC(=O)[C@H](CCCCN)NC(=O)[C@@H]4CSSC[C@H](NC(=O)[C@H](CO)NC(=O)[C@H](CCC(=O)O)NC(=O)CNC(=O)[C@H](CSSC[C@H](NC(=O)CNC1=O)C(=O)N[C@@H](CO)C(=O)N4)NC(=O)[C@@H]1CCCN1C(=O)[C@H]([C@@H](C)CC)NC(=O)[C@H](C(C)C)NC(=O)CNC(=O)[C@H](CC(N)=O)NC(=O)[C@H](CCCNC(=N)N)NC(=O)[C@H](Cc1ccc(O)cc1)NC3=O)C(=O)N[C@@H](C(C)C)C(=O)N[C@@H](Cc1ccccc1)C(=O)N[C@@H]([C@@H](C)CC)C(=O)N1CCC[C@H]1C(=O)N2 [caripe 10] (cyclo(CFSTVIGCSCKNKVCYRNGVIPCGESCVFIP); disulfide 1-15, 8-23, 10-27 (inferred); ring closure inferred)
- Ki (kOR [1]): 1000 nM

Molecule: dynorphin A 1-13 [reference compound]
- Receptor activation cAMP Emax (%) (kOR [2]): 113% and 104% and 119% and 134% and 137% and 96%

Molecule: kalata B1: circular plant peptide (cyclotide), GLPVCGETCVGGTCNTPGCTCSWPVCTRN (cyclo(GLPVCGETCVGGTCNTPGCTCSWPVCTRN); ends not checked; also: three disulfide bonds (cystine knot), pairing not given here; listed as Oldenlandia affinis)
- T-cell proliferation (T-cell proliferation): silence T-cell proliferation

Molecule: conjugated [T20K]-kalata B1: [T20K]-kalata B1 conjugated to VivoTag 680 XL Fluorochrome (GLPVCGETCVGGTCNTPGCKCSWPVCTRN; ends and bridges not checked; also: conjugated to VivoTag 680 XL fluorochrome (place not given here); UniProt P56254 89-117, looked up, variant T20K)
- Biodistribution: brain [3]: accumulated in the brain
- Biodistribution: spine [3]: also in the spine but to a far less extent

Molecule: CC(C)C[C@@H]1NC(=O)CNC(=O)[C@H](CC(N)=O)NC(=O)[C@H](CCCNC(=N)N)NC(=O)[C@H]([C@@H](C)O)NC(=O)[C@@H]2CSSC[C@@H]3NC(=O)[C@H]([C@@H](C)O)NC(=O)CNC(=O)CNC(=O)[C@H](C(C)C)NC(=O)[C@@H]4CSSC[C@H](NC(=O)[C@H](CCCCN)NC(=O)[C@H](CSSC[C@H](NC(=O)[C@H](C(C)C)NC(=O)[C@@H]5CCCN5C1=O)C(=O)NCC(=O)N[C@@H](CCC(=O)O)C(=O)N[C@@H]([C@@H](C)O)C(=O)N4)NC(=O)CNC(=O)[C@@H]1CCCN1C(=O)[C@H]([C@@H](C)O)NC(=O)[C@H](CC(N)=O)NC3=O)C(=O)N[C@@H](CO)C(=O)N[C@@H](Cc1c[nH]c3ccccc13)C(=O)N1CCC[C@H]1C(=O)N[C@@H](C(C)C)C(=O)N2 [[T20K]-kalata B1] (cyclo(CGETCVGGTCNTPGCKCSWPVCTRNGLPV); disulfide 1-15, 5-17, 10-22 (inferred); ring closure inferred)
- EC50 (kOR [2]): 17 µM
- Effect on the efficacy of U50,488 (cAMP) (kOR [2]): only slightly affected the efficacy
- Effect on the efficacy of dynorphin A 1-13 (cAMP) (kOR [2]): increase in its efficacy
- Effect on the potency of dynorphin A 1-13 (cAMP) (kOR [2]): does not affect the potency
- Mode of action at the kOR (kOR [2]): full agonist
- Shift in the potency of U50,488 (cAMP) (kOR [2]): nine-fold leftward shift in the potency
- Symptoms of EAE (EAE mouse model): significant delay and diminished symptoms of EAE
- Effect on the efficacy of U50,488 to recruit beta arrestin (kOR [4]): remarkable alleviation of the efficacy
- Effect on the potency of U50,488 to recruit beta arrestin (kOR [4]): not impinging on its potency
- beta arrestin recruitment (kOR [4]): no recruitment of beta arrestin could be detected
- Binding to and activation of hKOR (hKOR): bind to and activate hKOR
- Effect on the affinity of dynorphin A 1-13 (kOR [1]): only slightly affects the affinity
- Effect on tritiated diprenorphine binding (kOR [1]): negatively modulates tritiated diprenorphine
- Ki (kOR [1]): 2700 nM

Molecule: Cc1cc(-c2ccc(/N=N/c3ccc4c(S(=O)(=O)[O-])cc(S(=O)(=O)[O-])c(N)c4c3O)c(C)c2)ccc1/N=N/c1ccc2c(S(=O)(=O)[O-])cc(S(=O)(=O)[O-])c(N)c2c1O.[Na+].[Na+].[Na+].[Na+] [EvansBlue dye, reference compound]
- Biodistribution: brain [3]: strong signal
- Biodistribution: spine [3]: strong signal

Molecule: vitri cyclotide: novel cyclotide isolated from Viola tricolor, GDPIPCGETCFTGKCYSETIGCTCEWPICTKN (not fully specified (bridges); ends and bridges not checked; also: cyclic, type not given here)
- Binding of isolated vitri peptide to the kOR (kOR [1]): able to bind to the kOR
